In patent publication US20060125896A1, “Ink tank, ink jet recording method, and ink tank regeneration process” (Canon Kabushiki Kaisha, priority 2004, published 2006):

Test: Solubility in pure water with pH 7 at 25° C.
Type: physicochemical
Details: pH 7, 25° C., compared with the coloring material
Experimental: In order to inspect depositing quality due to the influence of pH, the solubility in pure water with pH7 at 25° C. has been compared between the compound represented by the general formula (I) or a salt thereof and the compound represented by the general formula (II) to find that the compound represented by the general formula (II) has a lower solubility than the compound represented by the general formula (I) or a salt thereof. This fact also has supported that the compound represented by the general formula (II) has a high depositing quality.

O=C([O-])c1ccccc1Nc1nc(O)nc(Nc2ccccc2C(=O)[O-])n1.[Na+].[Na+] [Exemplified Compound B]
solubility in pure water: lower than the solubility of Exemplified Compound A
